According to US20070105961A1, “1-Amino-alkylcyclohexanes as 5-HT3 and neuronal nicotinic receptor antagonists” (MERZ PHARMA GMBH & CO. KGAA, priority 2000, published 2007):
Where two headings read alike, the source gives them in different places.

Legend:
NMDA receptors [1] = target: T1, NMDA receptors; details: at −70 mV, cultured rat hippocampal neurones, cited from earlier work
T1 construct: PC NMDA (antagonism of NMDA-induced inward currents); other: at −70 mV, cultured rat hippocampal neurones; PC (PC NMDA, antagonism of NMDA-induced inward currents)

[2] = target: T2, α7 neuronal nicotinic receptors (Rattus norvegicus, UniProt Q05941); assay: patch clamp, antagonism of Ach-induced inward currents in cultured hippocampal neurones; format: cell-based
T2 construct: against peak responses of cultured hippocampal neurones to Ach (1 mM) applied for 2 secs; endogenous in cells; host or cells: cultured rat embryonic hippocampal neurones

NMDA receptors [3] = target: T3, NMDA receptors; details: rat cortical membranes, cited from earlier work
T3 construct: other: rat cortical membranes

5-HT3 receptors = target: T4, 5-HT3 receptors (Mus musculus, UniProt P23979); assay: patch clamp, antagonism of serotonin-induced inward currents in N1E-115 cells; format: cell-based; details: serotonin (10 μM) applied for 2 secs, read-out: 5HT3 IC50 against steady-state responses
T4 construct: against “steady-state” responses of N1E-115 cells to serotonin (10 μM); host or cells: N1E-115 cells
T4 sequence (P23979 24-489): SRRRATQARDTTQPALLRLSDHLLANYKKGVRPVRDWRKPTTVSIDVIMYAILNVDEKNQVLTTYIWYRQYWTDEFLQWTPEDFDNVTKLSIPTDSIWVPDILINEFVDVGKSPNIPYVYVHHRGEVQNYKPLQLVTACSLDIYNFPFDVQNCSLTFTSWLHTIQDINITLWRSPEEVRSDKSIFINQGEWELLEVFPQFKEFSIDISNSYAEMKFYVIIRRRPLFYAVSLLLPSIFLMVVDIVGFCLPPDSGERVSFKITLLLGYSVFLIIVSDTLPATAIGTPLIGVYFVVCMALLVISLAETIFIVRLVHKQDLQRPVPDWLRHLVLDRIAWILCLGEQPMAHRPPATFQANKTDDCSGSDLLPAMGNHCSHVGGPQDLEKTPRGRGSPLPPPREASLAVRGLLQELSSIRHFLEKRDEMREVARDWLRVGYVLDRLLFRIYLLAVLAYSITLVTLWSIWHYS
Experimental: N1E-115 cells were purchased from the European collection of cell cultures (ECACC, Salisbury, UK) and stored at −80° C. until further use. The cells were plated at a density of 100,000 cells cm^−2 onto plastic Petri dishes (Falcon) and were nourished with NaHCO3/HEPES-buffered minimum essential medium (MEM) supplemented with 15% foetal calf serum (Gibco) and incubated at 37° C. with 5% CO2 at 95% humidity. The medium was exchanged completely daily. Once every three days, cells were re-seeded onto fresh Petri dishes following treatment with trypsin-EDTA (1% in PBS), resuspension in MEM, and centrifugation at 1000 for 4 mins.
Patch clamp recordings were made from lifted cells, 2-3 days following seeding with polished glass electrodes (2-3 MΩ) in the whole cell mode at room temperature (20-22° C.) with an EPC-7 amplifier (List). Test substances were applied as for hippocampal cells. The contents of the intracellular solution were as follows (mM): CsCl (130), HEPES (10), EGTA (10), MgCl2 (2), CaCl2 (2), K-ATP (2), Tris-GTP (0.2), D-Glucose (10); pH was adjusted to 7.3 with CsOH or HCl. The extracellular solutions had the following basic composition (mM): NaCl (124), KCl (2.8), HEPES (10), pH 7.3 with NaOH or HCl.
Only results from stable cells were accepted for inclusion in the final analysis, i.e., showing at least 75% recovery of responses to agonist (serotonin or Ach) following removal of the antagonist tested. Despite this, recovery from drug actions wasn't always 100% because of rundown in some cells (<=10% over 10 mins). When present, this was always compensated by basing the % antagonism at each concentration on both control and recovery and assuming a linear time course for this rundown. All antagonists were assessed at steady-state blockade with 3 to 6 concentrations on at least 5 cells. Equilibrium blockade was achieved within 2 to 5 agonist applications, depending on antagonist concentration.
FIG. 1A and FIG. 1B show concentration-dependence of the blockade of 5HT3 receptors by MRZ 2/633 in cultured N1E-115 cells. Serotonin (10 μM) was applied for 2 seconds every 30 seconds in the continuous presence of various concentrations of MRZ 2/633 (1-10 μM).
B: Peak and steady-state (plateau) serotonin current responses were normalized to control levels and plotted as means (±SEM) against MRZ 2/633 concentration (n=8). Estimation of IC50s and curve fitting were made according to the 4 parameter logistic equation (GraFit, Erithacus Software).

[4] = Table 2, read-out: PC NMDA (antagonism of NMDA-induced inward currents)
[5] = Table 3, read-out: PC (PC NMDA, antagonism of NMDA-induced inward currents)
[6] = cultured hippocampal neurones, Ach (1 mM) applied for 2 secs, read-out: PC Ach IC50 against peak responses
[7] = read-out: [3H]MK (displacement of [3H]MK-801 binding), Table 3
[8] = read-out: [3H]MK- (displacement of [3H]MK-801 binding), Table 2

T2 sequence (Q05941 23-502): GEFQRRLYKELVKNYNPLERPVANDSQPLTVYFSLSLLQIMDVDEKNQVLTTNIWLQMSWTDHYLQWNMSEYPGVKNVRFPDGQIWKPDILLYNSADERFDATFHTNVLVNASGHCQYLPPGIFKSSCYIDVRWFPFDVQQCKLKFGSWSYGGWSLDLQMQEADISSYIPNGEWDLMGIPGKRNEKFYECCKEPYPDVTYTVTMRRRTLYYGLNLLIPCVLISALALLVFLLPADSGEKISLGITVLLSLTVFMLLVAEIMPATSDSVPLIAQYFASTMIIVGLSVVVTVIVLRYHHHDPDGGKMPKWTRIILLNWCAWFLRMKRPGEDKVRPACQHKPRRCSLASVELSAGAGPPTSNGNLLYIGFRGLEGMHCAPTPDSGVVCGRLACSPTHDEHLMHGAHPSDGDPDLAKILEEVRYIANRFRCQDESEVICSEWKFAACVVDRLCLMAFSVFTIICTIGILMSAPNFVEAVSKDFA

Row | SMILES | IC50 (NMDA receptors [1]; [4]) | IC50 (NMDA receptors [1]; [5]) | IC50 [2, 6] | Ki (NMDA receptors [3]; [7]) | Ki (NMDA receptors [3]; [8]) | IC50 (5-HT3 receptors) | α7 neuronal nicotinic antagonism (in words) ([2]; hippocampal neurones) | IC50 [2] | fold more effective as α7 neuronal nicotinic antagonist than as NMDA receptor antagonist ([2]; Table 3 and FIG. 4)
1 | CCC1(C)CC(C)(C)CC(C)(N)C1 (mixture of isomers) [MRZ 2/615, 1-Amino-1,3,5,5-tetramethyl-3-ethylcyclohexane (mixture of diastereomers)] | 1.3 µM | 2.9 µM | 2.21 µM | 2.29 µM | 2.29 µM | 2.5 µM | – | – | –
2 | CC1CC(C)CC(C)(N)C1 (mixture of isomers) [MRZ 2/616, 1-Amino-1,3,5-trimethylcyclohexane (mixture of diastereomers)] | 33.2 µM | 33.2 µM | 3.4 µM | 9.94 µM | 10.4 µM | 38.7 µM | much more potent in this regard than previously reported for NMDA receptors | – | –
3 | CCCC1(C)CCCC(C)(N)C1 (mixture of isomers) [MRZ 2/617, 1-Amino-1,3-dimethyl-3-propylcyclohexane (mixture of diastereomers)] | – | 63.9 µM | 1.16 µM | 36.1 µM | – | – | – | – | –
4 | C[C@@H]1CC(C)(C)C[C@@](C)(N)C1 (relative stereo) [MRZ 2/607, 1-Amino-1,3,3,5(trans)-tetramethylcyclohexane (axial amino group)] | 13.8 µM | – | – | – | 7.7 µM | 22.3 µM | – | – | –
5 | C[C@H]1CCC[C@](C)(N)C1 (relative stereo) [MRZ 2/625, 1-Amino-1,3(trans)-dimethylcyclohexane] | – | 245 µM | 3.29 µM | 49 µM | – | – | – | – | –
6 | CCC[C@H]1CCC[C@](C)(N)C1 (relative stereo) [MRZ 2/627, 1-Amino-1-methyl-3(trans)propylcyclohexane] | – | 150 µM | 2.6 µM | 67.3 µM | – | – | – | – | –
7 | CC[C@H]1CCC[C@](C)(N)C1 (relative stereo) [MRZ 2/629, 1-Amino-1-methyl-3(trans)ethylcyclohexane] | – | 219 µM | 2.05 µM | 46.7 µM | – | – | – | – | –
8 | CC[C@@H]1CC(C)(C)C[C@](C)(N)C1 (relative stereo) [MRZ 2/632, 1-Amino-1,3,3-trimethyl-5(cis)ethylcyclohexane] | 6.4 µM | – | – | – | 2.8 µM | 2.4 µM | – | – | –
9 | CC[C@@H]1CC(C)(C)C[C@@](C)(N)C1 (relative stereo) [MRZ 2/633, 1-Amino-1,3,3-trimethyl-5(trans)ethylcyclohexane] | 13.9 µM | – | – | – | 4.7 µM | 7.7 µM | – | – | –
10 | CC1(C)CC(C)(C)CC(C)(N)C1 [MRZ 2/579, 1-Amino-1,3,3,5,5-pentamethylcyclohexane] | 1.3 µM | 1.3 µM | 30 µM | 1.44 µM | 1.4 µM | 1.7 µM | – | – | –
11 | CCCC1(N)CC(C)(C)CC(C)(C)C1 [MRZ 2/601, 1-Amino-1-propyl-3,3,5,5-tetramethylcyclohexane] | 10 µM | – | – | – | 7.7 µM | 1.3 µM | – | – | –
12 | CCCC1(C)CC(C)CC(C)(N)C1 (stereo not drawn) [MRZ 2/618, 1-Amino-1,3(trans),5(trans)-trimethyl-3(cis)-propylcyclohexane] | – | 57.5 µM | 0.65 µM | 22.8 µM | – | – | – | – | –
13 | CCC1(C)CCCC(C)(N)C1 (centres unmarked) [MRZ 2/620, 1-Amino-1,3-dimethyl-3-ethylcyclohexane] | – | 99 µM | 2.44 µM | 24.2 µM | – | – | – | – | –
14 | CC1(C)CCCC(C)(N)C1 (centres unmarked) [MRZ 2/621, 1-Amino-1,3,3-trimethylcyclohexane] | 92.4 µM | 92.4 µM | – | 30.6 µM | 30.6 µM | 20.3 µM | – | 0.65 µM | –
15 | CNC1(C)CC(C)(C)CC(C)(C)C1 [MRZ 2/640, N-methyl-1-Amino-1,3,3,5.5-pentamethylcyclohexane] | 14.6 µM | – | – | – | 4.8 µM | 10.8 µM | – | – | –
16 | CC1(N)CCCCC1 [MRZ 2/641, 1-Amino-1-methylcyclohexane] | – | > 100 µM | 2.4 µM | 136 µM | – | – | – | – | –
17 | CN(C)C1(C)CC(C)(C)CC(C)(C)C1 [MRZ 2/642, N,N-dimethyl-1-amino-1,3,3,5,5-pentamethylcyclohexane] | 42.5 µM | 42.5 µM | – | 10.7 µM | 10.7 µM | 35.5 µM | – | 1 µM | –
18 | CC1(C)CC(C)(C)CC(C)(N2CCCC2)C1 [MRZ 2/705, N-(1,3,3,5,5-pentamethylcyclohexyl)pyrrolidine] | – | 20.8 µM | 1.3 µM | 7.09 µM | – | – | – | – | 16 fold
